The test system of the assay is APJ Receptor. Briefly: In vivo investigations of the stimulation of the APJ receptor by apelin in anesthetized dogs (blood pressure, heart rate, coronary flow). The procedure:
Adult FBI (Foxhound-Beagle-Irish-Setter) dogs (20-30 kg) are initially anesthetized with thiopental Na (Trapanal, Byk-Gulden) 20-30 mg/kg i.v. Alcuronium chloride (Alloferin, Roche) 0.1 mg/kg is initially given i.v. for muscle relaxation. The animals are intubated and ventilated with a ⅓ O2/N2O mixture using an Engström respiratory pump with 15-18 breaths per min and a volume of 18-24 ml/kg. The ventilation is set accurately according to the arterial partial pressure of CO2, maintaining an average pCO2 of 35-45 mmHg. The maintenance anesthesia is done with isoflurane (Baxter) 1.5-3%. The body temperature is kept at 38° C.±0.1° C. The arterial blood pressure is measured via a catheder in the femoral artery. A thoracotomy is performed at the fifth intercostal space on the left side. The lung is retracted and fixed, and the pericardium is incised. A proximal section of the LAD (left coronary artery) distal to the first diagonal branch is exposed, and a calibrated electromagnetic flow probe (Gould Statham, model SP7515) is placed around the vessel and connected to a flowmeter (Statham, model SP-2202). A mechanical occluder is attached distal of the flow probe in such a way that no branches lie between flow probe and occluder.
Blood is taken and substances are administered through a catheder in the femoral vein. A peripheral ECG is recorded with subcutaneously fixed needles. A microtip pressure manometer (Millar model PC-350) is pushed through the left atrium in order to measure the left ventricular pressure. Measurement of the heart rate is controlled by the R wave of the ECG. The hemodynamic parameters and the coronary flow are recorded on a multichannel recorder throughout the experiment.
The experiment is started after a stabilization time of 1 hour. […] The heart rate, blood pressure and coronary flow are recorded and analyzed.

With apelin, the coronary flow entry reads like this: (10 μg/kg i.v. bolus) “significant increase in the coronary flow”; (infusion 1, 3, 5, 10 μg/kg/min for 10 min) “dose-dependent increase in coronary flow”. In addition, the heart rate entry (bolus and continuous infusion) is “without changing the heart rate”. For the same substance, the blood pressure result (bolus and infusion) is recorded as “reduction in the blood pressure”. Where the note is “infusion for 10 min”, the “infusion rate at which maximum increase in coronary flow is reached” value was 3 µg/kg/min.

Values taken from patent publication US20050075275A1, “Regulation of the apj receptor for use in the treatment or prophylaxis of cardiac diseases” (Bayer Aktiengesellschaft, priority 2001, published 2005).
